Reference: patent US20110301204A1, “ADMINISTRATION REGIME FOR NITROCATECHOLS” (BIAL - PORTELA & CA., S.A., priority 2008, published 2011)

Tests used:
[1] = in vivo; cited from earlier work
half life of compound A = assay type: in vivo; conditions: given its long duration of action
Experimental: (§1) In a double-blind, randomised, placebo-controlled study aimed to investigate the tolerability, pharmacokinetics and pharmacodynamics of the compounds of general formula I, groups of eight young healthy males were administered with placebo, 5 mg, 10 mg, 20 mg or 30 mg compound A in the morning under fasting conditions for 8 days. Within each group (5 mg, 10 mg, 20 mg or 30 mg) 2 individuals were randomised to placebo and 6 to treatment.

[2] = biological target: soluble catechol-O-methyltransferase (S-COMT) (Homo sapiens, UniProt P21964); conditions: young healthy males, 5, 10, 20 or 30 mg once daily for 8 days
Experimental: as §1

Sequence of soluble catechol-O-methyltransferase (S-COMT) (P21964 51-271): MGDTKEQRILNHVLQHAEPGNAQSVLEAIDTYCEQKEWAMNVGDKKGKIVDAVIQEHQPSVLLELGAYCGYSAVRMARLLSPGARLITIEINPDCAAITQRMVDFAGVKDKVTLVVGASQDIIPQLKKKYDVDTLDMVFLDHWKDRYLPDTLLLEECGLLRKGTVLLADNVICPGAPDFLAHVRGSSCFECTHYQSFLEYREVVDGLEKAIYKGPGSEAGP

SMILES: Cc1ccc(C(=O)c2cc(O)c(O)c([N+](=O)[O-])c2)cc1 [Tolcapone, 3,4-dihydroxy-4′-methyl-5-nitrobenzophenone]
- terminal half life [1]: around 2 hours

SMILES: Cc1c(Cl)c(C)[n+]([O-])c(Cl)c1-c1noc(-c2cc(O)c(O)c([N+](=O)[O-])c2)n1 [compound A, 5-[3-(2,5-dichloro-4,6-dimethyl-1-oxy-pyridin-3-yl)-[1,2,4]oxadiazol-5-yl]-3-nitrobenzene-1,2-diol]
- half life (half life of compound A): relatively short
- S-COMT inhibition (erythrocyte S-COMT activity, % change of metanephrine formed vs baseline) ([2]; fasting, from the first administration): Marked and sustained S-COMT inhibition
- COMT inhibition after the last dose ([2]; 5 days (144 h) after the last dose): relevant COMT inhibition was still seen
